Measured values from patent publication US12473332B2, “Modified peptides and associated methods of use” (Advanced Technologies For Novel Therapeutics, LLC, priority 2019, dated 2025).
Where no end group is shown, it is not given here.

Tests used:
AKT = AKT (Homo sapiens, UniProt P31749); experiment: in vitro AKT kinase assay with Ser-9 GSK-3 GST fusion protein substrate; PKAc peptide library screen; type: biochemical; details: Ser-9 GSK-3 GST substrate
panel of 32 kinases = experiment: in vitro kinase selectivity panel of 32 kinases; type: biochemical; details: at IC50 for AKT1 (0.1 μM)
Experimental: (§1) To test the specificity/selectivity of ZaTa as the inhibitor of AKT1 versus the other major kinases, a series of in vitro kinase assays was performed at IC50 for AKT1 and at ten times higher concentrations. A panel of the following 32 kinases was first tested in vitro using the active form of each kinase and a specific substrate: AKT2, AKT3, PKA, PKCα, PKCγ, PI3Kβ, PI3Kδ, PI3Kγ, SGK, PAK2, PAK3, SAPK2/p38, Abl, CaMKII, CDK1/cyclinB, CDK5/p35, CK1, CK2, CSK, GSK3α, GSK3β, JNK1α1, MAPK1, p70S6K, PDGFRα, PDGFRβ, PDK1, PKG1α, TrkB, JAK2, JAK3, and Syk. […] However, at ten times higher concentration, ZaTa inhibited AKT2 (63%), PI3Kδ (72%), p70S6K (64%), SGK (73%), PAK3 (83%), JAK3 (79%), TrkB (84%), and Abl (42%). To confirm the in vitro inhibitory effect on these kinases in cells, a cell-based assay was used to determine the effect of labeled ZaTa on the phosphorylation levels of well-known intracellular substrates for each kinase (Zipfel, et al. (2004) Curr. Biol. 14:1222-1231; Wang, et al. (2003) Arch. Biochem. Biophys. 410:7-15; King, et al. (1998) Nature 396:180-183; Rangone, et al. (2004)Eur. J. Neurosci. 19:273-279; Middlemas, et al. (1994)J. Biol. Chem. 269:5458-5466; Huang, et al. (1999) J. Biol. Chem. 274:7870-7878). The results of this cell-based kinase assay confirmed that ZaTa could inhibit p70S6K besides AKT. […]

p70S6K [1] = biological target: T1, p70S6K (Homo sapiens, UniProt P23443); experiment: cell-based kinase assay, phosphorylation of intracellular substrates
T1 construct: phosphorylation levels of well-known intracellular substrates for each kinase; endogenous in cells
Experimental: as §1

Abl = biological target: T2, Abl (Mus musculus, UniProt P00520); experiment: stereotactic injection into brain, western blot with phospho-specific antibodies; type: in vivo; details: vs DMSO hemisphere
T2 construct: from tissue; host or cells: brain hemisphere, in vivo
Experimental: (§2) To analyze in vivo selectivity, ZaTa was injected into one hemisphere and DMSO in the other hemisphere, as above, and a series of western blot analyses was performed with phospho-specific antibodies which recognize a phosphorylated substrate or each one of the kinases that ZaTa inhibited at higher concentrations in vitro. […] Given the high functional and structural homology between p70S6K and AKT, the in vivo inhibitory effect of ZaTa on p70S6K was contemplated. Furthermore, the in vivo effect of ZaTa on the phosphorylation levels of substrates for PKA, PKC, CDKs using phospho-specific antibodies recognizing the phosphorylated consensus sites of these kinases was analyzed.

p70S6K [2] = biological target: T3, p70S6K (Mus musculus, UniProt Q8BSK8); experiment: as above; type: in vivo; details: vs DMSO hemisphere
T3 construct: from tissue; host or cells: brain hemisphere, in vivo
Experimental: as §2

AKT-PKAc complex = biological target: T4, AKT-PKAc complex (Mus musculus, UniProt P31750); experiment: AKT immunoprecipitation from striatum after stereotactic injection; type: in vivo, C57BL/6 mouse; details: ZaTa vs vehicle hemisphere
T4 construct: ZaTa could disrupt the physical complex between AKT and PKAc in vivo; from tissue; host or cells: mouse striatum
Experimental: The phenotypic consequence of disrupting the AKT-PKAc complex was also determined. ZaTa peptide was injected into the striatum of one hemisphere of the brain and DMSO, as vehicle, was injected into the other brain hemisphere of an adult C57BL/6 mouse under anesthesia. The brain was removed and dissected. Equal protein amounts from each hemisphere were subjected to immunoprecipitation by an anti-AKT antibody. […] To compare PKAc protein levels in the ZaTa- and vehicle-treated brain hemisphere lysates, western blot analysis was conducted.

N2a cells [3] = experiment: AKT-PKAc complex and neurite count in cultured N2a neurons; type: cell-based; details: 24 hours treatment
Experimental: Accordingly, the stability and phenotypic consequences of the AKT-PKAc complex was also analyzed in cultured neurons. N2a cells were treated with vehicle, ZaTa or control peptide for 24 hours. Media was removed after the 24-hour treatment and an equal number of cells from each treatment group was either cultured for another 24 hours without treatment, or lysed and subjected to immunoprecipitation with an antibody against AKT. Those cells cultured for another 24 hours were also harvested and subjected to immunoprecipitation. In parallel, the number of individual neurons with neurites was counted. […] Live images of N2a neurons were captured following treatment with vehicle or ZaTa (2 or 5 μM). […] ZaTa-mediated changes included a progressive loss of neurites, inhibition of new neurite formation, loss of cell motility, as well as formation of large cell colonies.

N2a cells [4] = experiment: MTT-based proliferation assay; type: cell-based
Experimental: AKT affects a network that positively regulates G1/S cell cycle progression through several mechanisms that involve the expression and subcellular localization of the CDK inhibitor p27^Kip1 (Blain and Massague (2002) Nat. Med. 8:1076-1078; Liang, et al. (2002) supra; Shin, et al. (2002) supra; Viglietto, et al. (2002) supra). Based on these studies, the effect of ZaTa peptide on cell proliferation was assessed. […] Capturing live images of cultured N2a cells in the presence of different concentrations of the ZaTa peptide confirmed an obvious reduction in the number of dividing cells.
Based on the importance of the C-terminal arm of ZaTa for its inhibitory action on AKT, it was determined whether the free hydroxyl groups on residues Thr-8, Thr-10 (equivalent to Thr-197 in full-length PKAc), Thr-14 and Tyr-17 were important for the biological activity of this peptide. Mutants of ZaTa peptide were synthesized by replacing Thr-8 or Thr-10 residues with Asp (ZaTa^T8D and ZaTa^T10D, respectively) as an amino acid with a negatively charged side chain. Mutants of ZaTa with the hydrophilic positively charged amino acid Arg at either position Thr-14 or Tyr-17 (ZaTa^T14R and ZaTa^Y17R, respectively) were also synthesized. […] The inhibitory effect of ZaTa peptide on cell proliferation was reversible, to a large extent, after the removal of ZaTa treatment.

Chain of AKT (P31749 whole entry, the tested form may be a part): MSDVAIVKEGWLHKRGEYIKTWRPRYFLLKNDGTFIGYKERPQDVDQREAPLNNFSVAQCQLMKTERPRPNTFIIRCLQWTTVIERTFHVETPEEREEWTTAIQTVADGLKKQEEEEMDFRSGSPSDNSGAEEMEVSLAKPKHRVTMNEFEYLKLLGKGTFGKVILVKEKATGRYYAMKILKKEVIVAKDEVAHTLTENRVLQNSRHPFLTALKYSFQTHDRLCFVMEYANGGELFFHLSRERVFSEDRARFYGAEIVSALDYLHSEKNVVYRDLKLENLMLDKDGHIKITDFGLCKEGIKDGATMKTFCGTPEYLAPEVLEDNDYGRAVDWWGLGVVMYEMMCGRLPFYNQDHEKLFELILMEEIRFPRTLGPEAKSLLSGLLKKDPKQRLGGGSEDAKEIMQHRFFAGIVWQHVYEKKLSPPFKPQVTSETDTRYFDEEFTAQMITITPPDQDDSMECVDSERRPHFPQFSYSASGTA
T1 sequence (P23443 whole entry): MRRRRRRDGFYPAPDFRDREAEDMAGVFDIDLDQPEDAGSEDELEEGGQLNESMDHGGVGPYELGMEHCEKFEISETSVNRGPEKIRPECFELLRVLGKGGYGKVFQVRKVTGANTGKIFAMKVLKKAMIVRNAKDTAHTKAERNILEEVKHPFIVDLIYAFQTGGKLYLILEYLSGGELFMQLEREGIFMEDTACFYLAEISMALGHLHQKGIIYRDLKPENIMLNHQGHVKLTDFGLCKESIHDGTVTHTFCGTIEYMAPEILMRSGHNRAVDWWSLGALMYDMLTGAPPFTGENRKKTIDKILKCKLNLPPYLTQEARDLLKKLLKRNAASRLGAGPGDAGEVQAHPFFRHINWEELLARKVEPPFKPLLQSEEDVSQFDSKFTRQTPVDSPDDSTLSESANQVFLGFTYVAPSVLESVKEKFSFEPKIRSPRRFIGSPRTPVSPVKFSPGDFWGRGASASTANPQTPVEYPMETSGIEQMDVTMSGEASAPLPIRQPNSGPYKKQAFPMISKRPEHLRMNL
T3 sequence (Q8BSK8 whole entry): as the sequence (P23443 whole entry) above, with P12L, D18H, M488V counted along it
T4 sequence (P31750 whole entry, one chain of several): as the sequence (P31749 whole entry, the tested form may be a part) above, with S2N, A50S, T100A, K112R, E117T, K389T, G410N, H415D counted along it
T2 sequence (P00520 whole entry): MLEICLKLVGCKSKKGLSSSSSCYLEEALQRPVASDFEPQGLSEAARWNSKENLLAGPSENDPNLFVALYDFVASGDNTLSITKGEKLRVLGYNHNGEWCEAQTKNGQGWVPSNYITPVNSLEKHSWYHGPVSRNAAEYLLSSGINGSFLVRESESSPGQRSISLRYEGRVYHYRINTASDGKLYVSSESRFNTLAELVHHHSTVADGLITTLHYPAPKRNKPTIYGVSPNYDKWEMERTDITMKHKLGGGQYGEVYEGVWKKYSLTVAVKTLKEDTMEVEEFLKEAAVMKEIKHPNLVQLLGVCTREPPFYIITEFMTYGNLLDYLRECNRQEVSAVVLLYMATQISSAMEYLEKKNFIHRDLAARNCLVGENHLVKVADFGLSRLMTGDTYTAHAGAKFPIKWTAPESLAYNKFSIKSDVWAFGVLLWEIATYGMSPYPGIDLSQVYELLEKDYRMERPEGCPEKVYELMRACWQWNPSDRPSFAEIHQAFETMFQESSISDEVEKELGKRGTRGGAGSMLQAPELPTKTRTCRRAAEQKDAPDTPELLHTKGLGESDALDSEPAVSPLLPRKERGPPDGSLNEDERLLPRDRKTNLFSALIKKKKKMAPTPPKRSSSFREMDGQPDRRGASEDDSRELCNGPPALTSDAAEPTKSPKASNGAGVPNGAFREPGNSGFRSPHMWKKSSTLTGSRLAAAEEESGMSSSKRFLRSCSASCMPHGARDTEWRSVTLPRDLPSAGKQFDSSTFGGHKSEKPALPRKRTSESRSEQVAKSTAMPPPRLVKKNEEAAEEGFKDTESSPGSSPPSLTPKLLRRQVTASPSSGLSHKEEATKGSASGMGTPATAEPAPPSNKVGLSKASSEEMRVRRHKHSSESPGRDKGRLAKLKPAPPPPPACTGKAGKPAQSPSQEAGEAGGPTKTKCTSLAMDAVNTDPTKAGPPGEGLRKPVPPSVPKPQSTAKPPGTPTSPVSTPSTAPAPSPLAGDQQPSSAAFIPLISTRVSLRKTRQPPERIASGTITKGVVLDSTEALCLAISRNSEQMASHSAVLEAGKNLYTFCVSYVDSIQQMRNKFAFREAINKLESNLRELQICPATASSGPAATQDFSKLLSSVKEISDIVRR

AKRVKGRTWTLCGTPEY [Peptide 53, A-K-R-V-K-G-R-T-W-T-L-C-G-T-P-E-Y]
inhibitory effect on catalytic activity of AKT (AKT): significant inhibitory effects | inhibitory effect on catalytic activity of AKT (AKT; listed as ZaTa): significantly reduced | inhibition of panel kinases (panel of 32 kinases): no significant inhibition | inhibition of p70S6K in cells (p70S6K [1]): could inhibit | in vivo inhibition of Abl (Abl): weaker in vivo inhibition | in vivo inhibition of p70S6K (p70S6K [2]): potent in vivo inhibition | amount of PKAc in physical contact with AKT (AKT-PKAc complex): dramatically reduced | amount of PKAc in physical contact with AKT (N2a cells [3]): reduced the amount of PKAc in physical contact with AKT | number of neurons with neurites (N2a cells [3]): significant reduction in the number of neurons with neurites | number of live cells after removal of treatment (reversibility) (N2a cells [4]; 24 hours after removal of 10 μM, vs DMSO vehicle): no significant differences in the number of live cells | number of live cells (N2a cells [4]; MTT): dose-dependent decrease in the number of live cells | dose causing a significant decrease in the number of live cells (N2a cells [4]; doses as low as): 2 µM
